Laboratory results reported in DBAASP.
In brackets after ≈: the same amount, converted by molar mass.

Assays:
Experiment in all cases: ≥ marks a high value that may be exact or a test limit, other limits are often not marked, values filed in µg/mL are converted to µM
[1] = test system: Salmonella typhimurium KCTC 1926
[2] = test system: Bacillus subtilis KCTC 1918
[3] = test system: Pseudomonas aeruginosa KCTC 1637
[4] = test system: Candida albicans TIMM 1768
[5] = test system: Aspergillus fumigatus KCTC 4165
[6] = test system: Escherichia coli KCTC 1682
[7] = test system: Streptococcus pyogenes KCTC 3096
[8] = test system: Staphylococcus aureus KCTC 1621

Compound: CC[C@H](C)[C@H](NC(=O)[C@H](CCCCN)NC(=O)[C@H](CCCCN)NC(=O)[C@H](CC(C)C)NC(=O)[C@H](CCCCN)NC(=O)[C@H](CCCCN)NC(=O)CN)C(=O)NCC(=O)N[C@@H](CCC(N)=O)C(=O)N[C@@H](CCCCN)C(=O)N[C@H](C(=O)N[C@@H](CCCCN)C(=O)N[C@@H](CC(N)=O)C(=O)N[C@@H](Cc1ccccc1)C(=O)N[C@@H](Cc1ccccc1)C(=O)N[C@@H](CCC(N)=O)C(=O)N[C@@H](CCCCN)C(=O)N[C@@H](CC(C)C)C(=O)O)[C@@H](C)CC [GKKLKKIGQKIKNFFQKL]
- MIC [1]: 1.56 µM (≈ 3.35 µg/mL)
- MIC [2]: 3.12 µM (≈ 6.7 µg/mL)
- MIC [3]: 0.78 µM (≈ 1.67 µg/mL)
- MIC [4]: 6.25 µM (≈ 13.4 µg/mL)
- MIC [5]: 12.5 µM (≈ 26.8 µg/mL)
- MIC [6]: 3.12 µM (≈ 6.7 µg/mL)
- MIC [7]: 3.12 µM (≈ 6.7 µg/mL)
- MIC [8]: 1.56 µM (≈ 3.35 µg/mL)
